From the RepoRT retention time repository (doi:10.1021/acs.analchem.2c02893)

Assay: RP, Thermo Scientific Acclaim RSLC 120 C18, 100 × 2.1 mm, 2.2 µm, 30 °C, 0.2 mL/min, estimated dead time 1.1 min; A: 90% water + 10% methanol + 0.01% formic acid + 5 mM ammonium formate, pH 3.61; B: methanol + 0.01% formic acid + 5 mM ammonium formate, pH 3.61; gradient (min/%B) 0/1 1/1 2/39 13/99.9 15/99.9 15.1/1 20.1/1
Details: stereoisomer not certain

Row | LC retention time [min] | SMILES
1 | 6.31 | CC(CN(C)C)C(C)(O)Cc1ccc(Cl)cc1 (stereo not drawn) [Clobutinol]
2 | 6.34 | COc1ccc(C(CN)C2(O)CCCCC2)cc1 [Venlafaxine- D L-N N-Didesmethyl]
3 | 8.28 | CN1CCN(C(c2ccccc2)c2ccc(Cl)cc2)CC1 (stereo not drawn) [Chlorcyclizine]
4 | 9.21 | CCCCC(=O)N(Cc1ccc(-c2ccccc2-c2nn[nH]n2)cc1)C(C(=O)O)C(C)C (stereo not drawn) [Valsartan]
5 | 7.06 | CCn1cc(C(=O)O)c(=O)c2ccc(C)nc21 [Nalidixic acid]
6 | 7.19 | CCCNC(=O)NS(=O)(=O)c1ccc(Cl)cc1 [Chlorpropamide]
7 | 6.19 | COc1cc(O)c(C(=O)c2ccccc2)cc1S(=O)(=O)O [Benzophenone-4]
8 | 5.59 | CCNC(=O)c1ccc(OC)cc1 [N-ethyl-4-methoxybenzamide]
9 | 2.96 | CC(C)NCC(O)c1ccc(NS(C)(=O)=O)cc1 (stereo not drawn) [Sotalol]
10 | 12 | O=C(Nc1ccc(Cl)cc1)Nc1ccc(Cl)c(Cl)c1 [Triclocarban]
11 | 4.4 | C1COC(NC(C2CC2)C2CC2)=N1 [Rilmenidine]
12 | 5.99 | CN1CCC(=C2c3ccccc3CCc3cccnc32)CC1 [Azatadine]
13 | 12 | CC1COC(=O)c2cc3c(cc21)C(C)(C)C(C)C3(C)C (stereo not drawn) [Galaxolidone]
14 | 5.11 | Cn1nnc2ccccc21 [Benzotriazole -1-Methyl]
15 | 1.38 | CNCC(O)c1ccc(O)c(O)c1 (stereo not drawn) [Epinephrine]
16 | 1.38 | NC(CO)C(=O)NNCc1ccc(O)c(O)c1O (stereo not drawn) [Benserazide]
17 | 5.63 | CCC(=O)C1C(=O)CC(C(=O)O)CC1=O (stereo not drawn) [Prohexadione]
18 | 8.85 | CCN(CC)CCCN(c1ccccc1)C1Cc2ccccc2C1 [Aprindine]
19 | 6.68 | CC(C)NCC(O)COc1ccc(CCOCC2CC2)cc1 (stereo not drawn) [Betaxolol]
20 | 9.9 | COc1ccc2c(c1)c(CC(=O)OCC(=O)O)c(C)n2C(=O)c1ccc(Cl)cc1 [Acemetacin]
21 | 4.99 | Cc1cc2c(s1)Nc1ccccc1N=C2N1CCN(C)CC1 [Olanzapine]
22 | 9.82 | Cc1ccc(C(C)NC(=O)C(NC(=O)OC(C)C)C(C)C)cc1 (stereo not drawn) [Iprovalicarb]
23 | 9.58 | O=C1OC(=O)c2ccccc21 [PX-1]
24 | 3.78 | O=C(Nc1cccc(C2=NCCN2)c1)Nc1cccc(C2=NCCN2)c1 [Imidocarb]
25 | 4.77 | NC(Cc1cc(I)c(O)c(I)c1)C(=O)O (stereo not drawn) [Tyrosine-3.5-Diiodo]

Row | LC retention time [min] | SMILES
26 | 4.42 | Cc1cccc(C(=O)O)c1N(Cn1cccn1)C(=O)C(=O)O [Metazachlor BH479-12]
27 | 8.32 | CC(COc1ccccc1Cc1ccccc1)N1CCCCC1 (stereo not drawn) [Benproperine]
28 | 10.3 | COC(=O)C1=C(C#N)NC(C)=C(C(=O)OC(C)C)C1c1cccc([N+](=O)[O-])c1 (stereo not drawn) [Nilvadipine]
29 | 6.18 | CNCC(c1ccc(OC)cc1)C1(O)CCCCC1 (stereo not drawn) [Venlafaxine-N-Desmethyl (norvenlafaxine)]
30 | 8.53 | CC(C(=O)O)c1cccc(C(=O)c2ccccc2)c1 (stereo not drawn) [Ketoprofen]
31 | 3.18 | CCN1CCCC1CNC(=O)c1cc(S(N)(=O)=O)ccc1O (stereo not drawn) [Sulpiride-O-Desmethyl]
32 | 7.46 | COc1ccnc(CS(=O)c2nc3ccc(OC(F)F)cc3[nH]2)c1OC (stereo not drawn) [Pantoprazole]
33 | 6.53 | O=c1[nH]c2ccccc2s1 [Benzothiazole -2-OH]
34 | 12.8 | CCC(C)N(C(=O)SCc1ccccc1)C(C)CC (stereo not drawn) [Tiocarbazil]
35 | 8.58 | NCCC(Oc1ccc(C(F)(F)F)cc1)c1ccccc1 (stereo not drawn) [Fluoxetine-nor]
36 | 9.34 | COC(=O)C1Cc2c([nH]c3ccccc23)C(c2ccc3c(c2)OCO3)N1C(=O)CCl (stereo not drawn) [Chloropretadalafil]
37 | 4.91 | CNCC(c1ccc(O)cc1)C1(O)CCCCC1 [Venlafaxine-D L-N O-Didesmethyl]
38 | 15.1 | CC1CCC2(OC1)OC1CC3C4CC=C5CC(O)CCC5(C)C4CCC3(C)C1C2C (stereo not drawn) [Diosgenin]
39 | 8.14 | COc1ccc2c(c1)N(CC(C)CN(C)C)c1ccccc1S2 (stereo not drawn) [Levomepromazine]
40 | 5.34 | COc1cc2nc(N3CCN(C(=O)c4ccco4)CC3)nc(N)c2cc1OC [Prazosin]
41 | 5.89 | CC(C)(C)c1n[nH]c(=O)n(N)c1=O [Metribuzin-Diketo (DK)]
42 | 3.13 | CN1C(=O)C(O)CC1c1cccnc1 (stereo not drawn) [Cotinine-Hydroxy]
43 | 9.46 | CCCCOC(=O)c1ccc(O)cc1 [Butylparaben]
44 | 8.51 | CNC(=O)Nc1ccc(Cl)c(Cl)c1 [3-4-(dichlorophenyl)-3-methyl urea]
45 | 8.49 | CNCC(C)CN1c2ccccc2CCc2ccccc21 (stereo not drawn) [Trimipramine-Nor]
46 | 4.44 | Cc1cc2c(OCC(O)CNC(C)C)cccc2[nH]1 (stereo not drawn) [Mepindolol]
47 | 2.27 | CC(=O)Nc1ccc(N)cc1 [4`-Aminoacetanilide]
48 | 6.66 | COC(=O)C1=COC(C)C2CN3CCc4c([nH]c5ccccc45)C3CC12 (stereo not drawn) [Raubasine]
49 | 4.39 | N=C(N)N1CCc2ccccc2C1 [Debrisoquine]

Row | SMILES | LC retention time [min]
50 | CCOP(=O)(NC(C)C)Oc1ccc(S(C)(=O)=O)c(C)c1 (stereo not drawn) [Fenamiphos - sulfone] | 7.21
51 | O=C1NCCN1Cc1ccc(Cl)nc1 [Imidacloprid-urea] | 4.71
52 | CNC(C)C(=O)c1ccccc1 (stereo not drawn) [Methcathinone] | 3.68
53 | CN(C)C(=O)Nc1ccc(Cl)cc1 [Monuron] | 6.9
54 | CCCN(CCC)C(=O)SCc1ccccc1 [Prosulfocarb] | 11.9
55 | CCOP(=S)(OCC)Oc1ccc(Cl)cc1Cl [Dichlofenthion] | 12.6
56 | O=C(O)CCCCn1cc(C(=O)c2cccc3ccccc23)c2ccccc21 [JWH-018-M-N-Pentanoic acid] | 9.71
57 | CC(C)NCC(O)c1ccccc1Cl (stereo not drawn) [Clorprenaline] | 4.76
58 | CCCCCn1cc(C(=O)Cc2ccc(OC)cc2)c2ccccc21 [JWH-201] | 11.6
59 | COP(=O)(OC)Oc1ccc([N+](=O)[O-])cc1 [Paraoxon-methyl] | 6.36
60 | Cc1cc(C)cc(C(=O)N(NC(=O)c2ccc3c(c2C)CCCO3)C(C)(C)C)c1 [Chromafenozide] | 9.93
61 | COC12CCC3(CC1C(C)(O)C(C)(C)C)C1Cc4ccc(O)c5c4C3(CCN1CC1CC1)C2O5 (stereo not drawn) [Buprenorphine (BN)] | 7.96
62 | CCOP(=S)(OCC)SCSP(=S)(OCC)OCC [Ethion] | 12.4
63 | O=C1Nc2ccc(Cl)cc2C(c2ccccc2)=NC1O (stereo not drawn) [Oxazepam] | 8.43
64 | CCc1cccc(CC)c1N(COC)C(=O)CCl [Alachlor] | 10.3
65 | NCC(O)c1cccc(O)c1 (stereo not drawn) [Fenefrine-Nor] | 1.81
66 | CNC(=O)ON=C(SC)C(=O)N(C)C [Oxamyl] | 3.77
67 | CC(Oc1ccc(Oc2cnc3cc(Cl)ccc3n2)cc1)C(=O)O (stereo not drawn) [Quizalofop] | 9.62
68 | CCCCOCCOCCOCc1cc2c(cc1CCC)OCO2 [Piperonyl butoxide] | 12.4
69 | CC(C)=NOCCOC(=O)C(C)Oc1ccc(Oc2cnc3cc(Cl)ccc3n2)cc1 (stereo not drawn) [Propaquizafop] | 12.3

Row | SMILES | LC retention time [min]
70 | Nc1ccc2c(c1)C(c1ccccc1Cl)=NCC(=O)N2 [Clonazepam- 7-Amino] | 4.86
71 | CNC(=O)Oc1cccc2c1OC(C)(C)C2 [Carbofuran] | 7.01
72 | CCCCCn1cc(C(=O)c2ccc(Br)c3ccccc23)c2ccccc21 [JWH-387] | 13.4
73 | CC(C)=CC1C(C(=O)OCN2C(=O)C3=C(CCCC3)C2=O)C1(C)C (stereo not drawn) [Tetramethrin] | 12.2
74 | O=CNC(N1CCN(C(NC=O)C(Cl)(Cl)Cl)CC1)C(Cl)(Cl)Cl (stereo not drawn) [Triforine] | 8.65
75 | COc1ccc(CC(C)N)cc1 (stereo not drawn) [PMA] | 4.34
76 | CNC(=O)ON=CC(C)(C)SC [Aldicarb] | 6.17
77 | O=S(=O)(Oc1ccc(Cl)cc1)c1ccc(Cl)cc1 [Chlorfenson.Ovex.chlorofenizon.ephirsulfonate.ovatron] | 11.1
78 | CCN(CC)CCN1C(=O)CN=C(c2ccccc2F)c2cc(Cl)ccc21 [Flurazepam] | 6.61
79 | COc1ccc2c(c1O)-c1c3c(cc4c1C(C2)N(C)CC4)OCO3 (stereo not drawn) [Bulbocapnine] | 4.36
80 | COP(=S)(OC)Oc1ccc(S(C)(=O)=O)c(C)c1 [Fenthion-sulfon] | 7.57
81 | CC(Cc1ccccc1)NCCn1cnc2c1c(=O)n(C)c(=O)n2C (stereo not drawn) [Fenethylline] | 5.06
82 | CNC(C)Cc1ccc2c(c1)OCO2 (stereo not drawn) [MDMA] | 4.18
83 | O=C(NC(=O)c1c(F)cccc1F)Nc1cc(Cl)c(Oc2ncc(C(F)(F)F)cc2Cl)c(Cl)c1 [Chlorfluazuron] | 13.2
84 | COc1ccc2c3c1OC1C(O)CCC4C(C2)N(C)CCC341 (stereo not drawn) [Codeine-Dihydro] | 3.36
85 | O=C(CCCN1CCC(n2c(=O)[nH]c3ccccc32)CC1)c1ccc(F)cc1 [Benperidol] | 5.96
86 | O=C(O)CCCOc1ccc(Cl)cc1Cl [2.4-DB] | 10
87 | CCC(C)n1c(=O)[nH]c(C)c(Br)c1=O (stereo not drawn) [Bromacil] | 7.07
88 | CN(C(=O)COc1nc2ccccc2s1)c1ccccc1 [Mefenacet] | 9.83
